In publication PMC5601486, “Identification of 4-phenylquinolin-2(1H)-one as a specific allosteric inhibitor of Akt” (Scientific Reports, 2017):

How the values were obtained:
Akt S473 phosphorylation = assay: pS473-Akt HTRF assay; assay type: cell-based, Mouse
Protocol: Neuro 2A cells were seeded (4,000 cells/well) in 4 µL of DMEM with 0.5% FBS and 1x Penicillin/Streptomycin in white solid bottom tissue-culture treated 1536-well plates (Greiner, 789173-F) with MultiDrop Combi Dispenser (Thermo Scientific). The cells were incubated for 24 h at 37 °C, 5% CO2, 95% humidity. Twenty-three nL of tested compounds were transferred to each well with an automated pin-tool station (Kalypsys). Following incubation for 15 min at 37 °C, 0.5 µL IGF (500 ng/mL of final concentration) was added and incubated for additional 40 min at 37 °C. After the addition of 1.5 µL 4x lysis buffer and 15-min incubation at room temperature (25 °C), 2 µL of HTRF® conjugated antibodies (fluorophore d2 conjugated anti-Akt monoclonal antibody and Europium^3+ cryptate-labeled anti-pS473-Akt monoclonal antibody, obtained from CisBio, 1:80 dilution) were added with BioRAPTR FRD™ (Beckman Coulter). The plates were incubated at room temperature for 20 h. The signal was measured by EnVision Multilabel Plate Reader (PerkinElmer) with excitation at 330 nm, emission at 620 nm (donor) and 665 nm (acceptor). Results were calculated and analyzed in a format of the ratio 665 nm/620 nm multiplied by 10^4.
Relative activity was calculated by normalizing each HTRF signal from each sample well to the mean HTRF signal from the DMSO-only control wells.
The Library of Pharmacologically Active Compounds (LOPAC, 1280 compounds) and the Molecular Library Small Molecular Repository Library (MLSMR, 373,868 compounds) were obtained from Sigma-Aldrich.
Quantitative HTS (qHTS) and curve response class classification
The qHTS screen was performed as described previously1. Each compound was titrated in seven concentrations. The final concentrations of the compounds assayed ranged from 4.9 nM to 76.6 µM. The curve response classifications (CRC), which can be used to depict potency, efficacy and reliability of the data, and to estimate an IC50 value, were determined by a customized software2. […]
Sigma-Aldrich) and the basal response (0% inhibition) was set to the DMSO control.
Efficacy of a compound refers to the highest response normalized to the maximal response of LY. The CRCs were grouped into 4 categories. Class 1 are well-fit and have both upper and lower asymptotes with efficacy greater than 30%
(Class1.1, >80% efficacy; Class 1.2; 30-80% efficacy). Class 2 are incomplete with only one asy mptote (Class 2.1, > 80% efficacy; Class 2.2, 30-80% % efficacy). Class 3 display activity only at the highest concentrations and efficacy >30%. Class 4 are with low efficacy (<30%) or no response and considered inactive3.

Akt = system: T1, Akt; assay: In vitro phosphorylation of Akt T308 by PDK1; assay type: biochemical; conditions: inactive Akt, PE/PC/PS/PIP3 vesicles
T1 construct: purchased Millipore 14-279

LNCaP cells = assay: MTS cell proliferation assay; assay type: cell-based; conditions: 1 day, 40% confluent
Protocol: Neuro 2A cells or NIH/3T3 cells (ATCC) were seeded at various confluency in a 96-well plate in 100 µL DMEM containing 5% FBS or 10% FBS with 1% penicillin streptomucin, respectively, at 37 °C in a 5% CO2 and 95% humidity incubator for 18 hr. To each well 1 µL inhibitor with various concentrations or DMSO was added. The final concentrations of the tested inhibitors were 0, 5, 10, 20, 40 and 80 µM for G7 and LY, and 0, 5, 10, 20, 40 and 80 nM for Torin1, based on their respective IC50 values (~µM for G7 and LY and ~ nM for Torin 1). After 24 hr, 20 µL of CellTiter 96® AQueous One Solution Reagent (Promega) were added. The plate was placed in the incubator for 2 h and absorbance at 490 nm was measured with a Synergy HT Microplate Reader (Bio-Tek).
Fig. S8. Effect of G7 on proliferation of LNCaP cells. Cells that were 40% confluent in RPMI-1640 medium containing 10% FBS were treated with inhibitors for 1 day and subjected to MTS assays. *, µM for both G7 and LY and nM for Torin1. Data represent means ± SEM (n=3). G7, 4-phenylquinolin-2(1H)-one, LY, LY294002.

CDC2L1 = assay: KINOMEscan; conditions: 50000 nM
Protocol: KINOMEscan™ selectivity screen
(§1) Briefly, Kinase-tagged T7 phage strains were grown in parallel in an E. coli host derived from the BL21 strain. E. coli were grown to log-phase and infected with T7 phage from a frozen stock and incubated with shaking at 32°C until lysis (90-150 minutes). The kinases were produced in HEK-293 cells and subsequently tagged with DNA for qPCR detection. Streptavidin-coated magnetic beads were treated with biotinylated small molecule ligands to generate affinity resins for kinase
(§2) inhibitor or DMSO control was performed in polypropylene 384-well plates for 1 hr at room temperature. After wash with PBS buffer containing 0.05% Tween 20, the beads were incubated in elution buffer (PBS containing 0.05 % Tween 20 and 0.5 μM non-biotinylated affinity ligand) for 30 minutes at room temperature. The kinase concentration in the eluates was measured by qPCR.

LIMK2 = assay: KINOMEscan; conditions: 50000 nM
Protocol: KINOMEscan™ selectivity screen
(§3) The assay was perfor med at DiscoveRx Corporation according the methods published previously5. Briefly, Kinase-tagged T7 phage strains were grown in parallel in an E. coli host derived from the BL21 strain. E. coli were grown to log-phase and infected with T7 phage from a frozen stock and incubated with shaking at 32°C until lysis (90-150 minutes). The kinases were produced in HEK-293 cells and subsequently tagged with DNA for qPCR detection. Streptavidin-coated magnetic beads were treated with biotinylated small molecule ligands to generate affinity resins for kinase
as §2

EPHB4 = assay: KINOMEscan; conditions: 50000 nM
Protocol: KINOMEscan™ selectivity screen
as §1, §2

MAP4K3 = assay: KINOMEscan; conditions: 50000 nM
Protocol: KINOMEscan™ selectivity screen
as §3, §2

CDK2 = assay: KINOMEscan; conditions: 50000 nM
Protocol: KINOMEscan™ selectivity screen
as §1, §2

DRAK2 = assay: KINOMEscan; conditions: 50000 nM
Protocol: KINOMEscan™ selectivity screen
as §3, §2

ULK3 = assay: KINOMEscan; conditions: 50000 nM
Protocol: KINOMEscan™ selectivity screen
as §3, §2

CAMK1 = assay: KINOMEscan; conditions: 50000 nM
Protocol: KINOMEscan™ selectivity screen
as §3, §2

FGFR3 = assay: KINOMEscan; conditions: 50000 nM
Protocol: KINOMEscan™ selectivity screen
as §3, §2

PLK4 = assay: KINOMEscan; conditions: 50000 nM
Protocol: KINOMEscan™ selectivity screen
as §3, §2

MLCK = assay: KINOMEscan; conditions: 50000 nM
Protocol: KINOMEscan™ selectivity screen
as §3, §2

MARK1 = assay: KINOMEscan; conditions: 50000 nM
Protocol: KINOMEscan™ selectivity screen
The assay was perfor med at DiscoveRx Corporation according the methods published previously5. […] The kinases were produced in HEK-293 cells and subsequently tagged with DNA for qPCR detection. Streptavidin-coated magnetic beads were treated with biotinylated small molecule ligands to generate affinity resins for kinase
as §2

GRK1 = assay: KINOMEscan; conditions: 50000 nM
Protocol: KINOMEscan™ selectivity screen
as §3, §2

PRKR = assay: KINOMEscan; conditions: 50000 nM
Protocol: KINOMEscan™ selectivity screen
as §3, §2

MEK6 = assay: KINOMEscan; conditions: 50000 nM
Protocol: KINOMEscan™ selectivity screen
as §3, §2

MEK5 = assay: KINOMEscan; conditions: 50000 nM
Protocol: KINOMEscan™ selectivity screen
as §3, §2

NEK3 = assay: KINOMEscan; conditions: 50000 nM
Protocol: KINOMEscan™ selectivity screen
as §3, §2

PIK4CB = assay: KINOMEscan; conditions: 50000 nM
Protocol: KINOMEscan™ selectivity screen
as §3, §2

[1] = system: ABL1(Q252H)-phosphorylated; assay: KINOMEscan; conditions: 50000 nM
Protocol: KINOMEscan™ selectivity screen
as §3, §2

PDGFRB = assay: KINOMEscan; conditions: 50000 nM
Protocol: KINOMEscan™ selectivity screen
as §1, §2

[2] = system: JAK1(JH2domain-pseudokinase); assay: KINOMEscan; conditions: 50000 nM
Protocol: KINOMEscan™ selectivity screen
as §3, §2

With Oc1cc(-c2ccccc2)c2ccccc2n1 [G7, 4-phenylquinolin-2(1H)-one] the IC50 (Akt S473 phosphorylation; Mus musculus, N2a, Neuro 2A cells, inhibitor 15 min before IGF, read-out: IC50) was about 20 µM, the maximum inhibition (Akt S473 phosphorylation; compared to that of 100 µM LY) was 50% and the “in vitro phosphorylation of T308 by PDK1” value (Akt) was “impaired”. The “proliferation of LNCaP prostate cancer cells” value (LNCaP cells) was “inhibited the proliferation”, the “Percent Control” value (CDC2L1) was 100% and the “Percent Control” value (LIMK2) was 97%. The “Percent Control” value (EPHB4) was 92%, the “Percent Control” value (MAP4K3) was 89% and the “Percent Control” value (CDK2) was 88%. For the same compound, the “Percent Control” value (DRAK2) was 86%, the “Percent Control” value (ULK3) was 86% and the “Percent Control” value (CAMK1) was 84%. For the same compound, the “Percent Control” value (FGFR3) was 83%, the “Percent Control” value (PLK4) was 80% and the “Percent Control” value (MLCK) was 78%. The “Percent Control” value (MARK1) was 76%, the “Percent Control” value (GRK1) was 75% and the “Percent Control” value (PRKR) was 74%. For the same compound, the “Percent Control” value (MEK6) was 72%, the “Percent Control” value (MEK5) was 70% and the “Percent Control” value (NEK3) was 68%. The “Percent Control” value (PIK4CB) was 64%, the “Percent Control” value [1] was 33% and the “Percent Control” value (PDGFRB) was 23%. The “Percent Control” value [2] was 5.5%.
